In US20240108601A1, “TREATMENT OF MENTAL DISORDERS” (GH Research Ireland Limited, priority 2022, published 2024):
Values joined by “and” are separate entries in the source; they are usually repeats but may differ in a detail not shown here. Identical values can stand only once.

What was measured:
[1] = tested on: patients with postpartum depression (PPD); test: Clinical trial of inhaled 5-MeO-DMT in postpartum depression; type: in vivo, human; conditions: for BIMF domain Adjustment score / BIMF domain Infant Care score: max 12; for BIMF domain Infant Care score: Day 0 12; for BIMF domain Management score: max 36; for BIMF domain Psychological Well-being score: max 60; for BIMF TOTAL score: possible total 120; for Time to clinical remission after administration: IDR 6 mg then 12 mg
Description: The patient completed all planned visit days.

[2] = In vitro binding of 5-MeO-DMT to plasma proteins, high throughput dialysis; type: in vitro ADME
Method: Following evaluation of the equilibration data, plasma protein binding was investigated at nominal concentrations of 0.1, 1 and 10 μM using a 4-hour dialysis time. […]

[3] = second patient, Day 7 (visit on day 5)

Q: Which results are given for `COc1ccc2[nH]cc(CCN(C)C)c2c1` [5-MeO-DMT]?
A: BIMF TOTAL Δ (Day 7) ([1]; first patient): 13; BIMF domain Adjustment Δ (Day 7) ([1]; first patient): 1; BIMF domain Infant Care Δ (Day 7) ([1]; first patient): 0; BIMF domain Management Δ (Day 7) ([1]; first patient): 5; BIMF domain Mother-Child Interaction Δ (Day 7) ([1]; first patient): 2; BIMF domain Psychological Well-being Δ (Day 7) ([1]; first patient): 9; BIMF domain Self-Care Δ (Day 7) ([1]; first patient): 4; BIMF domain Social Support Δ (Day 7) ([1]; first patient): 1; PES score ([1]; first patient, 12 mg): 85.7; Total MADRS improvement ([1]; first patient, 2 hr): 24; Total MADRS score ([1]; first patient, 2 hr, baseline 29): 5; BPRS item score ([1]; first patient, Day 1): 1; MADRS item score ([1]; first patient, Day 1): 0; Total MADRS improvement ([1]; first patient, Day 1): 29; Total MADRS score ([1]; first patient, Day 1, baseline 29): 0; BIMF domain Adjustment % improvement ([1]; first patient, Day 7): 20.00%; BIMF domain Infant Care % improvement ([1]; first patient, Day 7): 0.00%; BIMF domain Management % improvement ([1]; first patient, Day 7): 18% and 17.86%; BIMF domain Mother-Child Interaction % improvement ([1]; first patient, Day 7): 13.33%; BIMF domain Psychological Well-being % improvement ([1]; first patient, Day 7): 20.45%; BIMF domain Self-Care % improvement ([1]; first patient, Day 7): 44% and 44.44%; BIMF domain Social Support % improvement ([1]; first patient, Day 7): 5.88%; BIMF total score improvement ([1]; first patient, Day 7): 14%; BPRS item score ([1]; first patient, Day 7): 1; Total MADRS improvement ([1]; first patient, Day 7): 28; BIMF domain Adjustment score ([1]; first patient, Day 7, Day 0 5): 6; BIMF domain Self-Care score ([1]; first patient, Day 7, Day 0 9, max 18): 13; BIMF domain Infant Care score ([1]; first patient, Day 7): 12; BIMF domain Mother-Child Interaction score ([1]; first patient, Day 7, Day 0 15, max 18): 17; BIMF domain Social Support score ([1]; first patient, Day 7, Day 0 17, max 18): 18; BIMF domain Management score ([1]; first patient, Day 7, Day 0 28): 33; BIMF domain Psychological Well-being score ([1]; first patient, Day 7, Day 0 44): 53; BIMF TOTAL score ([1]; first patient, Day 7, Day 0 92): 105; Total MADRS score ([1]; first patient, Day 7, baseline 29): 1; BPRS item score ([1]; first patient, Discharge): 1; Time to clinical remission after administration ([1]; first patient): ≤ 2 h; Reported adverse events ([1]; first patient, cramping left abdominal pain and headache, Day 0): mild, short-lasting and resolved spontaneously; PES score ([1]; first patient, nominal dose 6 mg): 17.3; BIMF TOTAL Δ (Day 7) ([1]; second patient): 45; BIMF domain Adjustment Δ (Day 7) ([1]; second patient): 9; BIMF domain Infant Care Δ (Day 7) ([1]; second patient): 0; BIMF domain Management Δ (Day 7) ([1]; second patient): 13; BIMF domain Mother-Child Interaction Δ (Day 7) ([1]; second patient): 7; BIMF domain Psychological Well-being Δ (Day 7) ([1]; second patient): 27; BIMF domain Self Care Δ (Day 7) ([1]; second patient): 10; BIMF domain Social Support Δ (Day 7) ([1]; second patient): 3; PES score ([1]; second patient, 12 mg): 94.7; Total MADRS score ([1]; second patient, 2 hr, baseline 41): 5; Total MADRS improvement ([1]; second patient, 2 hrs): 36; BPRS item score ([1]; second patient, Day 1): 1; MADRS item score ([1]; second patient, Day 1): 0; Total MADRS improvement ([1]; second patient, Day 1): 41; Total MADRS score ([1]; second patient, Day 1, baseline 41): 0; BIMF domain Adjustment % improvement ([1]; second patient, Day 7): 450%; BIMF domain Infant Care % improvement ([1]; second patient, Day 7): 0%; BIMF domain Management % improvement ([1]; second patient, Day 7): 76%; BIMF domain Mother-Child Interaction % improvement ([1]; second patient, Day 7): 70%; BIMF domain Psychological Well-being % improvement ([1]; second patient, Day 7): 113%; BIMF domain Self Care % improvement ([1]; second patient, Day 7): 333%; BIMF item score ([1]; second patient, Day 7): 6 and 5 and 4; BIMF total score improvement ([1]; second patient, Day 7): over 40%; BPRS item score [1, 3]: 1; MADRS item score [1, 3]: 0; Total MADRS improvement [1, 3]: 41; Total MADRS score ([1]; second patient, Day 7 (visit on day 5), baseline 41): 0; BIMF domain Adjustment score ([1]; second patient, Day 7, Day 0 2): 11; BIMF domain Self Care score ([1]; second patient, Day 7, Day 0 3, max 18): 13; BIMF domain Mother-Child Interaction score ([1]; second patient, Day 7, Day 0 10, max 18): 17; BIMF domain Social Support score ([1]; second patient, Day 7, Day 0 11, max 18): 14; BIMF domain Infant Care score ([1]; second patient, Day 7): 12; BIMF domain Management score ([1]; second patient, Day 7, Day 0 17): 30; BIMF domain Psychological Well-being score ([1]; second patient, Day 7, Day 0 24): 51; BIMF TOTAL score ([1]; second patient, Day 7, Day 0 59 (table)): 104; BPRS item score ([1]; second patient, Discharge): 1; Time to clinical remission after administration ([1]; second patient): ≤ 2 h; PES score ([1]; second patient, nominal dose 6 mg): 1; Reported adverse events ([1]; second patient, vomiting Day 0, headache Day 5): mild, short-lasting and resolved spontaneously; fraction unbound at 4 h ([2]; human plasma): 0.77 to 0.87; fraction unbound at 4 h, 0.1 μM ([2]; human, 0.1 μM, 4-hour dialysis, read-out: Free Fraction in human plasma): 0.787; fraction unbound at 4 h, 1 μM ([2]; human, 1 μM, 4-hour dialysis, read-out: Free Fraction in human plasma): 0.773; fraction unbound at 4 h, 10 μM ([2]; human, 10 μM, 4-hour dialysis, read-out: Free Fraction in human plasma): 0.87
